For assay [1], the system named is Staphylococcus aureus IFO 12732. Kind of assay: Minimal inhibitory concentration, standard method of Japan Society of Chemotherapy. Conditions: IFO12732. It counts as cell-based.
The subject of assay [2] is Mycobacterium tuberculosis H37 Rv. Description: Survival of mice infected with tuberculosis, groups of 10 (Tables 4 and 5). The settings on record: oral, 200 μg/mouse; for dead mice: fortieth day.
The test system of assay [3] is Micrococcus luteus IFO 12708. Description: Minimal inhibitory concentration, standard method of Japan Society of Chemotherapy. It counts as cell-based. The settings on record: IFO12708.
In assay [4] the test system is Bacillus subtilis IFO 3134. The description is as above. It counts as cell-based. Conditions: IFO3134.
Assay [5] has as its system Mycobacterium tuberculosis H37 Rv. Description: Minimal inhibitory concentration against a tubercle bacillus. Conditions: Kirchner liquid medium containing 10% bovine serum, 37° C., 4 weeks.
For assay [6], the system named is Escherichia coli IFO 12734. Description: Minimal inhibitory concentration, standard method of Japan Society of Chemotherapy. Conditions: IFO12734. It counts as cell-based.
The test system of assay [7] is Klebsiella pneumoniae IFO 3512. The assay is described as above. It counts as cell-based. Conditions: IFO3512.
Assay [8] relates to Mycobacterium smegmatis ATCC 607. Described as above. It counts as cell-based. Conditions: Mycolicibacterium smegmatis, ATCC607.
Assay [9] has as its system Mycobacterium tuberculosis H37 Rv. Kind of assay: Therapeutic effect on mice infected with tuberculosis, groups of 20 (FIG. 1). Conditions: oral, 200 μg/mouse once a day, six days a week.

≈ marks a conversion by molar mass, not a printed value.

`CCCCN1CCN(c2cc(O)c3nc4c5c6c7c(C)c(O)c5c(=O)c(c-4oc3c2)NC(=O)C(C)=CC=CC(C)C(O)C(C)C(O)C(C)C(OC(C)=O)C(C)C(OC)C=COC(C)(O7)C6=O)CC1` (stereo not drawn) [Derivative No. 1]: the MIC was ≤ 0.02 µg/mL in assay [1]; ≤ 0.02 µg/mL in [3]; ≤ 0.02 µg/mL in assay [4]; > 10 µg/mL in [6]; > 10 µg/mL in assay [7]; 5 µg/mL (≈ 5.31 µM) in [8]. The Survival rate in assay [2] (Table 5, control 0%) came to 100%. Moreover, the dead mice result in assay [2] (Table 5 test) was “there was not observed any dead mouse”. The Minimal inhibitory concentration in [5] came to 0.035 µg/mL (≈ 0.0372 µM).

For `COC1C=COC2(C)Oc3c(C)c(O)c4c(=O)c(c5oc6cc(N7CCN(CC(C)C)CC7)cc(O)c6nc-5c4c3C2=O)NC(=O)C(C)=CC=CC(C)C(O)C(C)C(O)C(C)C(OC(C)=O)C1C` (stereo not drawn) [Derivative No. 2], the MIC is ≤ 0.02 µg/mL in [1]; ≤ 0.02 µg/mL in assay [3]; 0.04 µg/mL (≈ 0.0425 µM) in assay [4]; > 10 µg/mL in [6]; > 10 µg/mL in [7]; 2.5 µg/mL (≈ 2.66 µM) in assay [8]. In assay [2] (Table 4, control 30%), this compound showed a Survival rate of 100%. In addition, the dead mice result in [2] (Table 4 test) is listed as “there was not observed any dead mouse”. Also, the Minimal inhibitory concentration in assay [5] is 0.017 µg/mL (≈ 0.0181 µM). The “therapeutic effect as compared with rifampicin (and derivative A)” value in assay [9] is “excellent therapeutic effect as compared with rifampicin”.

Turning to `COC1C=COC2(C)Oc3c(C)c(O)c4c(=O)c(c5oc6cc(N7CCN(CC8CC8)CC7)cc(O)c6nc-5c4c3C2=O)NC(=O)C(C)=CC=CC(C)C(O)C(C)C(O)C(C)C(OC(C)=O)C1C` (stereo not drawn) [Derivative No. 3], the MIC in [1] was ≤ 0.02 µg/mL; in assay [3], ≤ 0.02 µg/mL; in assay [4], ≤ 0.02 µg/mL; in [6] it was > 10 µg/mL; in assay [7], > 10 µg/mL; in assay [8] it was 2.5 µg/mL (≈ 2.66 µM). In assay [2] (Table 4, control 30%), the Survival rate is given as 100%. Moreover, in assay [2] (Table 4 test), the dead mice result was “there was not observed any dead mouse”. For the same compound, in assay [5], the Minimal inhibitory concentration was determined as 0.017 µg/mL (≈ 0.0181 µM).

Regarding `CCC(C)N1CCN(c2cc(O)c3nc4c5c6c7c(C)c(O)c5c(=O)c(c-4oc3c2)NC(=O)C(C)=CC=CC(C)C(O)C(C)C(O)C(C)C(OC(C)=O)C(C)C(OC)C=COC(C)(O7)C6=O)CC1` (stereo not drawn) [Derivative No. 4], the minimal inhibitory concentration (MIC) in assay [1] is ≤ 0.02 µg/mL; in [3], ≤ 0.02 µg/mL; in [4] it was ≤ 0.02 µg/mL; in assay [6], > 10 µg/mL; in assay [7], > 10 µg/mL; in assay [8], 1.25 µg/mL (≈ 1.33 µM). This compound also had a Survival rate in assay [2] (Table 5, control 0%) of 100%. Moreover, in assay [2] (Table 5 test), the dead mice result is on record as “there was not observed any dead mouse”. The Minimal inhibitory concentration in [5] was 0.017 µg/mL (≈ 0.0181 µM).

In the case of `COC1C=COC2(C)Oc3c(C)c(O)c4c(=O)c(c5oc6cc(N7CCN(CCC(C)C)CC7)cc(O)c6nc-5c4c3C2=O)NC(=O)C(C)=CC=CC(C)C(O)C(C)C(O)C(C)C(OC(C)=O)C1C` (stereo not drawn) [Derivative No. 5], the MIC in assay [1] is ≤ 0.02 µg/mL; in assay [3], ≤ 0.02 µg/mL; in [4] it was 0.16 µg/mL (≈ 0.168 µM); in assay [6] it was > 10 µg/mL; in [7], > 10 µg/mL; in assay [8], 5 µg/mL (≈ 5.23 µM). This compound yielded a Survival rate in assay [2] (Table 4, control 30%) of 100%. In addition, in [2] (Table 4 test), the dead mice result was “there was not observed any dead mouse”. For the same compound, the Minimal inhibitory concentration in assay [5] is 0.07 µg/mL (≈ 0.0733 µM).

`COC1C=COC2(C)Oc3c(C)c(O)c4c(=O)c(c5oc6cc(N7CCN(C(C)(C)C)CC7)cc(O)c6nc-5c4c3C2=O)NC(=O)C(C)=CC=CC(C)C(O)C(C)C(O)C(C)C(OC(C)=O)C1C` (stereo not drawn) [Derivative No. 6]: the minimum inhibitory concentration (MIC) in assay [1] is ≤ 0.02 µg/mL; in assay [3], ≤ 0.02 µg/mL; in assay [4] it was ≤ 0.02 µg/mL; in [6] it was > 10 µg/mL; in assay [7], > 10 µg/mL; in [8], 1.25 µg/mL (≈ 1.33 µM). Moreover, the Survival rate in assay [2] (Table 5, control 0%) turned out to be 100%. Also, the dead mice result in assay [2] (Table 5 test) is listed as “there was not observed any dead mouse”. For the same compound, in assay [5], the Minimal inhibitory concentration was 0.008 µg/mL (≈ 0.0085 µM).

Consider `C=CCN1CCN(c2cc(O)c3nc4c5c6c7c(C)c(O)c5c(=O)c(c-4oc3c2)NC(=O)C(C)=CC=CC(C)C(O)C(C)C(O)C(C)C(OC(C)=O)C(C)C(OC)C=COC(C)(O7)C6=O)CC1` (stereo not drawn) [Derivative No. 7], for which the minimum inhibitory concentration (MIC) in assay [1] is ≤ 0.02 µg/mL; in [3], ≤ 0.02 µg/mL; in assay [4], 0.04 µg/mL (≈ 0.0432 µM); in [6], > 10 µg/mL; in assay [7], > 10 µg/mL; in assay [8], 2.5 µg/mL (≈ 2.7 µM). This compound showed a Survival rate in assay [2] (Table 4, control 30%) of 100%. In addition, the dead mice result in assay [2] (Table 4 test) was “there was not observed any dead mouse”. In [5], this compound showed a Minimal inhibitory concentration of 0.035 µg/mL (≈ 0.0378 µM).

Regarding `C=CCCN1CCN(c2cc(O)c3nc4c5c6c7c(C)c(O)c5c(=O)c(c-4oc3c2)NC(=O)C(C)=CC=CC(C)C(O)C(C)C(O)C(C)C(OC(C)=O)C(C)C(OC)C=COC(C)(O7)C6=O)CC1` (stereo not drawn) [Derivative No. 8], the MIC in [1] was ≤ 0.02 µg/mL; in assay [3], ≤ 0.02 µg/mL; in assay [4] it was ≤ 0.02 µg/mL; in [6], > 10 µg/mL; in assay [7] it was > 10 µg/mL; in assay [8] it was 2.5 µg/mL (≈ 2.66 µM). The Survival rate in assay [2] (Table 5, control 0%) is reported as 100%. In addition, the dead mice result in [2] (Table 5 test) is “there was not observed any dead mouse”. For the same compound, the Minimal inhibitory concentration in assay [5] is 0.017 µg/mL (≈ 0.0181 µM).

On to `COC1C=COC2(C)Oc3c(C)c(O)c4c(=O)c(c5oc6cc(N7CCN(CC=C(C)C)CC7)cc(O)c6nc-5c4c3C2=O)NC(=O)C(C)=CC=CC(C)C(O)C(C)C(O)C(C)C(OC(C)=O)C1C` (stereo not drawn) [Derivative No. 9], for which the minimal inhibitory concentration (MIC) was ≤ 0.02 µg/mL in assay [1]; ≤ 0.02 µg/mL in [3]; 0.08 µg/mL (≈ 0.0839 µM) in assay [4]; > 10 µg/mL in assay [6]; > 10 µg/mL in assay [7]; 2.5 µg/mL (≈ 2.62 µM) in [8]. For the same compound, the Survival rate in assay [2] (Table 4, control 30%) came out at 100%. Besides, the dead mice result in assay [2] (Table 4 test) was “there was not observed any dead mouse”. Moreover, the Minimal inhibitory concentration in assay [5] is 0.035 µg/mL (≈ 0.0367 µM).

`COC1C=COC2(C)Oc3c(C)c(O)c4c(=O)c(c5oc6cc(N7CCN8CCCC8C7)cc(O)c6nc-5c4c3C2=O)NC(=O)C(C)=CC=CC(C)C(O)C(C)C(O)C(C)C(OC(C)=O)C1C` (stereo not drawn) [Derivative No. 10]: the minimum inhibitory concentration (MIC) in assay [1] is ≤ 0.02 µg/mL; in [3], ≤ 0.02 µg/mL; in assay [4], ≤ 0.02 µg/mL; in assay [6], 10 µg/mL (≈ 10.8 µM); in [7], 10 µg/mL (≈ 10.8 µM); in assay [8] it was 2.5 µg/mL (≈ 2.7 µM). In assay [2] (Table 4, control 30%), this compound registered a Survival rate of 100%. In addition, the dead mice entry in assay [2] (Table 4 test) is given as “there was not observed any dead mouse”. The compound also came in with a Minimal inhibitory concentration in [5] of 0.15 µg/mL (≈ 0.162 µM).

Turning to `CO[C@H]1/C=C/O[C@@]2(C)Oc3c(C)c(O)c4c(O)c(c(/C=N/N5CCN(C)CC5)c(O)c4c3C2=O)NC(=O)/C(C)=C\C=C\[C@H](C)[C@H](O)[C@@H](C)[C@@H](O)[C@@H](C)[C@H](OC(C)=O)[C@@H]1C` [Rifampicin, reference compound], the Survival rate in [2] (Table 4, control 30%) was determined as 80%; in assay [2] (Table 5, control 0%), 40%. The Minimal inhibitory concentration in assay [5] was determined as 0.6 µg/mL (≈ 0.729 µM).

In the case of `COC1C=COC2(C)Oc3c(C)c(O)c4c(=O)c(c5oc6cc(N7CCCCC7)ccc6nc-5c4c3C2=O)NC(=O)C(C)=CC=CC(C)C(O)C(C)C(O)C(C)C(OC(C)=O)C1C` (stereo not drawn) [derivative B], the “therapeutic effect as compared with rifampicin (and derivative A)” value in assay [9] is on record as “inferior to rifampicin”.

In the case of `CCc1c(N2CCCC2)ccc2nc3c4c5c6c(C)c(O)c4c(=O)c(c-3oc12)NC(=O)C(C)=CC=CC(C)C(O)C(C)C(O)C(C)C(OC(C)=O)C(C)C(OC)C=COC(C)(O6)C5=O` (stereo not drawn) [derivative C], the “therapeutic effect as compared with rifampicin (and derivative A)” value in assay [9] was “inferior to rifampicin”.

Broadly, the MIC is the lowest concentration that inhibits growth of the organism. A higher MIC goes with a less susceptible organism.

(Values after patent publication US4983602A, “3'-hydroxybenzoxazinorifamycin derivative, process for preparing the same and antibacterial agent containing the same” (Kanegafuchi Kagaku Kogyo Kabushiki Kaisha, priority 1988, dated 1991).)
